In ChEMBL document CHEMBL5380817, “Discovery of LL-K8-22: A Selective, Durable, and Small-Molecule Degrader of the CDK8-Cyclin C Complex” (J Med Chem, 2023):
Activity calls are given as the source filed them. The calls are words filed in the database; no cut-off is given here.

Legend:
[1] = biological target: T1, CDK8/Cyclin C (Homo sapiens) (UniProt P49336+P24863); assay: Hydrophobic-tagging degradation activity at CDK8/Cyclin C in human MDA-MB-468 cells assessed as protein degradation at 1.1 to 10 uM incubated for 48 hrs by Western blotting analysis; type: cell-based; settings: dose 1.1-10 µM
[2] = biological target: T1, CDK8/Cyclin C (Homo sapiens); assay: Hydrophobic-tagging degradation activity at CDK8/Cyclin C in human MDA-MB-468 cells assessed as protein degradation at 0.38 to 12 uM incubated for 48 hrs by Western blotting analysis; type: cell-based; settings: dose 0.38-12 µM
[3] = biological target: T2, Cyclin-dependent kinase 8 (Homo sapiens, UniProt P49336); assay: Hydrophobic-tagging degradation activity at CDK8 in human MDA-MB-468 cells assessed as degradation of CDK8 incubated for 48 hrs by Western blotting analysis; type: cell-based
T2 sequence (P49336 whole entry): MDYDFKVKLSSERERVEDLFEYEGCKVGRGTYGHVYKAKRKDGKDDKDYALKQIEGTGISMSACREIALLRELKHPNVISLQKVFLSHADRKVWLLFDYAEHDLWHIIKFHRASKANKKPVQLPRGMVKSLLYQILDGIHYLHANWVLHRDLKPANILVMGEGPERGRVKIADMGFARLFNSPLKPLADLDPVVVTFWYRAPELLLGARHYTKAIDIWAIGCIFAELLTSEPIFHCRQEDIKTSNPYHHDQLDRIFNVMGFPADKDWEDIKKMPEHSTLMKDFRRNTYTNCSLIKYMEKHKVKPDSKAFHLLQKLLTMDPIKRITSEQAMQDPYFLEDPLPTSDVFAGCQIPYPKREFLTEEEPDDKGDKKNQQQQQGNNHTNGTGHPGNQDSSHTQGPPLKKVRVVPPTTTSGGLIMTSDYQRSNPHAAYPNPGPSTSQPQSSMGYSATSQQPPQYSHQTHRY

[4] = biological target: Cyclin-C (Homo sapiens, UniProt P24863); assay: PROTAC activity at Cyclin C in human MDA-MB-468 cells assessed as degradation of Cyclin C incubated for 48 hrs by Western blotting analysis; type: cell-based
Chain of Cyclin-C (P24863 whole entry): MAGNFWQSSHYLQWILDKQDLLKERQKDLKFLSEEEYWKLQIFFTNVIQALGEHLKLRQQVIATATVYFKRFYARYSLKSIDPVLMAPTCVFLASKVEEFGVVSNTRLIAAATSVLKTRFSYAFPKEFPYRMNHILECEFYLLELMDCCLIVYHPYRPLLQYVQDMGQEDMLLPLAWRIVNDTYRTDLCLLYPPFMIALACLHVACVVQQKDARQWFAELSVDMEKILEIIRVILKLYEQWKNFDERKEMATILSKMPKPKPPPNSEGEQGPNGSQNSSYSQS

[5] = biological target: Cyclin-dependent kinase 4 (Homo sapiens) (UniProt P11802); assay: Hydrophobic-tagging degradation activity at CDK4 in human MDA-MB-468 cells assessed as degradation of CDK4 at 0.625 to 10 uM incubated for 24 hrs by Western blotting analysis; type: cell-based; settings: dose 0.625-10 µM
Chain of Cyclin-dependent kinase 4 (Homo sapiens) (P11802 whole entry): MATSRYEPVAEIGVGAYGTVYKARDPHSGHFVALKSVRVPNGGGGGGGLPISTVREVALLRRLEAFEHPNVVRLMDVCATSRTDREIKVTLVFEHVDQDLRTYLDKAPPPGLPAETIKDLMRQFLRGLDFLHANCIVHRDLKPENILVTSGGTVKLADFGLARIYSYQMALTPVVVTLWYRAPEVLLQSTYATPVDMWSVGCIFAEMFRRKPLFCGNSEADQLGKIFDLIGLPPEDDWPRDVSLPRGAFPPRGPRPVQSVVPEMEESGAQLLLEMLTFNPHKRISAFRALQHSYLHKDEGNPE

[6] = biological target: Cyclin-dependent kinase 6 (Homo sapiens) (UniProt Q00534); assay: PROTAC activity at CDK6 in human MDA-MB-468 cells assessed as degradation of CDK6 at 0.625 to 10 uM incubated for 24 hrs by Western blotting analysis; type: cell-based; settings: dose 0.625-10 µM
Chain of Cyclin-dependent kinase 6 (Homo sapiens) (Q00534 whole entry): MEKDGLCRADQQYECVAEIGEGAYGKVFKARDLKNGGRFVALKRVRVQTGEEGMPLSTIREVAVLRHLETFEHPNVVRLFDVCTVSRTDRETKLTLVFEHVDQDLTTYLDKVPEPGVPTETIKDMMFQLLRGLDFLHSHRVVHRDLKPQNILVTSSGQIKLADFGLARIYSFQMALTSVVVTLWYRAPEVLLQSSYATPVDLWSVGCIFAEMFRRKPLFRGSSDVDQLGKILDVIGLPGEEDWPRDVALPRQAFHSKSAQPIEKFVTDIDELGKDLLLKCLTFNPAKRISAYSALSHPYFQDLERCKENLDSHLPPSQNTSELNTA

[7] = biological target: Cyclin-dependent kinase 7 (Homo sapiens) (UniProt P50613); assay: Hydrophobic-tagging degradation activity at CDK7 in human MDA-MB-468 cells assessed as degradation of CDK7 at 0.625 to 10 uM incubated for 24 hrs by Western blotting analysis; type: cell-based; settings: dose 0.625-10 µM
Chain of Cyclin-dependent kinase 7 (Homo sapiens) (P50613 whole entry): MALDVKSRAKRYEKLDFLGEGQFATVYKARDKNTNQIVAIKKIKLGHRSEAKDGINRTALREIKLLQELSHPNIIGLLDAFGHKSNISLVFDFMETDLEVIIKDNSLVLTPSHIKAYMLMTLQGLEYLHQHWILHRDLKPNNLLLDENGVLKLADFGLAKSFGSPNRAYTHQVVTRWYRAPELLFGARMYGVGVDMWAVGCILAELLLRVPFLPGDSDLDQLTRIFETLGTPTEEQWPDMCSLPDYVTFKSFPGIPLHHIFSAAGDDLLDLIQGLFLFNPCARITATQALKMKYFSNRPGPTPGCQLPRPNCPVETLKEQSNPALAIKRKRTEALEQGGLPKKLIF

[8] = biological target: Cyclin-dependent kinase 12 (Homo sapiens) (UniProt Q9NYV4); assay: PROTAC activity at CDK12 in human MDA-MB-468 cells assessed as degradation of CDK12 at 0.625 to 10 uM incubated for 24 hrs by Western blotting analysis; type: cell-based; settings: dose 0.625-10 µM
Chain of Cyclin-dependent kinase 12 (Homo sapiens) (Q9NYV4 whole entry, looked up): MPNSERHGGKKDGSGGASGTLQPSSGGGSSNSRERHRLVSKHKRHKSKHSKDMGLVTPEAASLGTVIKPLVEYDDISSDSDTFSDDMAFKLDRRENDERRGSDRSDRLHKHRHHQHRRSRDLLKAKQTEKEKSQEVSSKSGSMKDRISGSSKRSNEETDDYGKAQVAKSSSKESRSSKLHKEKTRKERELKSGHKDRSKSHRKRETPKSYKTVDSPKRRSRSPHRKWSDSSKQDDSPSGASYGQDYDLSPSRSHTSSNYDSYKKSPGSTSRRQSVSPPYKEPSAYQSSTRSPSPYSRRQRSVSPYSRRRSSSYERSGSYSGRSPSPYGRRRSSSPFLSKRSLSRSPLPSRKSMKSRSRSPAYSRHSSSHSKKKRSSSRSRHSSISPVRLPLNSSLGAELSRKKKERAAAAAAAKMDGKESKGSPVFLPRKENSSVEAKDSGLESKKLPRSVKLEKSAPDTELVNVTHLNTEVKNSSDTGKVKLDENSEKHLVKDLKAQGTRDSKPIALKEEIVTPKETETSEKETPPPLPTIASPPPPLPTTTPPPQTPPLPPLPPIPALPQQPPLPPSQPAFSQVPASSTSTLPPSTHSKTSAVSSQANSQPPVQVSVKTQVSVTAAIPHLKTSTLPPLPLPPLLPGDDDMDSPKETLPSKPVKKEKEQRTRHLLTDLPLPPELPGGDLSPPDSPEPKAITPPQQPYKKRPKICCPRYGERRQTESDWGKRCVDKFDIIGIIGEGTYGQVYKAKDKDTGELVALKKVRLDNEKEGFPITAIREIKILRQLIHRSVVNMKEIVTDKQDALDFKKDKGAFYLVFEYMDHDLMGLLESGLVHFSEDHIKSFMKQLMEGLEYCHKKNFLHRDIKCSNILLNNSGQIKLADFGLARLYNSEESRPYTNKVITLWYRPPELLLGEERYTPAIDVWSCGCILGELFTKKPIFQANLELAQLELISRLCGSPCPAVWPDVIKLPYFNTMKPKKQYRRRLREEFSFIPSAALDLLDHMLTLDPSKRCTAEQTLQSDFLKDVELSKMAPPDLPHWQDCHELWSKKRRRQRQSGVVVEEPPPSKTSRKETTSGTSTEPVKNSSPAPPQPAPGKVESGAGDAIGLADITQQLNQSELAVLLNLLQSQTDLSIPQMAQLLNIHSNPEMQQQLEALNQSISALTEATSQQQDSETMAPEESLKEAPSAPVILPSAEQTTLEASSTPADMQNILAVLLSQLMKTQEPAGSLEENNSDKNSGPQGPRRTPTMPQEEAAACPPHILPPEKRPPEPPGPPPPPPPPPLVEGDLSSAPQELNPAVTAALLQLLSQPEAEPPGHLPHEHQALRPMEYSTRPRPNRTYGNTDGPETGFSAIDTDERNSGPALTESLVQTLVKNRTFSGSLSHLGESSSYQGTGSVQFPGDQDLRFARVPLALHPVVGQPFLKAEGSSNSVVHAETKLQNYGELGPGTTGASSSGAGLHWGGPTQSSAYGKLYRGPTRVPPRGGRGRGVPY

[9] = biological target: Cyclin-dependent kinase 19 (Homo sapiens) (UniProt Q9BWU1); assay: Hydrophobic-tagging degradation activity at CDK19 in human MDA-MB-468 cells assessed as degradation of CDK19 at 0.625 to 10 uM incubated for 24 hrs by Western blotting analysis; type: cell-based; settings: dose 0.625-10 µM
Chain of Cyclin-dependent kinase 19 (Homo sapiens) (Q9BWU1 whole entry): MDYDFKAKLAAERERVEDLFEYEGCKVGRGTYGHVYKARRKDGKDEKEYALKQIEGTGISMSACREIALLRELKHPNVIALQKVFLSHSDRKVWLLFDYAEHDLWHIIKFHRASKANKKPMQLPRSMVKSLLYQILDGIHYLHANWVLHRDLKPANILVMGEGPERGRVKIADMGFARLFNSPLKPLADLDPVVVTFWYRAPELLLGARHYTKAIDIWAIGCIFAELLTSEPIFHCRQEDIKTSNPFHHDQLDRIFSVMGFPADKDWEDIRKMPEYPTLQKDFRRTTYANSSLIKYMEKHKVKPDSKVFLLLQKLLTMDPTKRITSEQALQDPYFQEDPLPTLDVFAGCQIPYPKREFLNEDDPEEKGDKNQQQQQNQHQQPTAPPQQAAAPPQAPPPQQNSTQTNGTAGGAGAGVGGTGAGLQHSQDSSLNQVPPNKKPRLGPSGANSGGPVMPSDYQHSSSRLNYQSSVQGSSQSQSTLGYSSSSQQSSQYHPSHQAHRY

[10] = biological target: G2/mitotic-specific cyclin-B1 (Homo sapiens) (UniProt P14635); assay: PROTAC activity at Cyclin B1 in human MDA-MB-468 cells assessed as degradation of Cyclin B1 at 0.625 to 10 uM incubated for 24 hrs by Western blotting analysis; type: cell-based; settings: dose 0.625-10 µM
Chain of G2/mitotic-specific cyclin-B1 (Homo sapiens) (P14635 whole entry): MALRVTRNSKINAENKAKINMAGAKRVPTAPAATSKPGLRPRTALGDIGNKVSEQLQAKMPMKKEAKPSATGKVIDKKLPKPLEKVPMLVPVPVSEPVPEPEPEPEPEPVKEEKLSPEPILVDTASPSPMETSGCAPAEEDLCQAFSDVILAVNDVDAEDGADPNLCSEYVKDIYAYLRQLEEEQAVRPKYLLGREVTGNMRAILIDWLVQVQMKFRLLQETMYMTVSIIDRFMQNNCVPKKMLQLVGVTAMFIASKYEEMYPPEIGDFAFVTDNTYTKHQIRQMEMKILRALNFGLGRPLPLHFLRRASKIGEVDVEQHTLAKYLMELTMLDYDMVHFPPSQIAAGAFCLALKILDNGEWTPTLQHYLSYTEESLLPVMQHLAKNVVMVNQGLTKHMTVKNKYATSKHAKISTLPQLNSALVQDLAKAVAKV

[11] = biological target: Cyclin-K (Homo sapiens) (UniProt O75909); assay: PROTAC activity at Cyclin K in human MDA-MB-468 cells assessed as degradation of Cyclin K at 0.625 to 10 uM incubated for 24 hrs by Western blotting analysis; type: cell-based; settings: dose 0.625-10 µM
Chain of Cyclin-K (Homo sapiens) (O75909 whole entry): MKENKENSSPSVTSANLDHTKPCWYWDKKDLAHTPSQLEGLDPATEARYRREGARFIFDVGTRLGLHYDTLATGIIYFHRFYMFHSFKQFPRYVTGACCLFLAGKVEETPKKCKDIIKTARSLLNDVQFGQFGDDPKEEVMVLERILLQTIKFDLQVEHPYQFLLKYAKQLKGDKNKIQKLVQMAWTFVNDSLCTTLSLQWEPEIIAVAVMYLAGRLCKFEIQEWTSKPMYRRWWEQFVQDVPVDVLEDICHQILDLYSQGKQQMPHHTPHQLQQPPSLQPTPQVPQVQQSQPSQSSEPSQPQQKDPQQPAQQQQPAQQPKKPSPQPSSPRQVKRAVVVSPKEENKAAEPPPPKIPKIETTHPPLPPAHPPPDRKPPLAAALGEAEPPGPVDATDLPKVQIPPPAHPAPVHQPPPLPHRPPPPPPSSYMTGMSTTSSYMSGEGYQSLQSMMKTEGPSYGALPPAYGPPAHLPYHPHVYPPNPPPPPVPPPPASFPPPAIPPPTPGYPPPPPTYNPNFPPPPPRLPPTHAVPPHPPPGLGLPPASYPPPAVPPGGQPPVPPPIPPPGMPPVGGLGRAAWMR

[12] = biological target: Cyclin-dependent kinase 1 (Homo sapiens) (UniProt P06493); assay: Hydrophobic-tagging degradation activity at CDK1 in human MDA-MB-468 cells assessed as downregulation of CDK1 mRNA level at 1.1 to 10 uM incubated for 24 hrs by RT-qPCR analysis; type: cell-based; settings: dose 1.1-10 µM
[13] = biological target: T2, Cyclin-dependent kinase 8; assay: Hydrophobic-tagging degradation activity at CDK8 in human MDA-MB-468 cells assessed as degradation of CDK8 protein at 5 uM incubated for 12 hrs by DIA-based proteomic analysis; type: cell-based
[14] = biological target: T1, CDK8/Cyclin C (Homo sapiens); assay: Hydrophobic-tagging degradation activity at CDK8/Cyclin C in human MDA-MB-468 cells assessed as protein degradation at 10 uM incubated for 2 to 20 hrs in presence of cycloheximide by Western blotting analysis; type: cell-based; settings: time 2-20 hrs, TDE = time-dependent effect
[15] = biological target: T1, CDK8/Cyclin C (Homo sapiens); assay: Hydrophobic-tagging degradation activity at CDK8/Cyclin C in human MDA-MB-468 cells assessed as protein degradation at 1.1 to 10 uM incubated for 24 hrs in presence of MG132 by Western blotting analysis; type: cell-based; settings: dose 1.1-10 µM
[16] = test system: HCT-116; assay: Antiproliferative activity against human HCT-116 cells assessed as reduction in cell viability incubated for 4 days by Celltiter glo luminescent assay; type: functional, cell-based; settings: time 4.0 day
[17] = test system: MDA-MB-468; assay: Antiproliferative activity against human MDA-MB-468 cells assessed as reduction in cell growth at 5 to 20 uM measured upto 5 days by Celltiter glo luminescent assay; type: functional, cell-based; settings: dose 5-20 µM, time <= 5.0 day
[18] = test system: MDA-MB-468; assay: Inhibition of colony formation in human MDA-MB-468 cells assessed as reduction in cell colony size at 1.25 to 20 uM incubated for 3 days by crystal violet staining based assay; type: functional; settings: dose 1.25-20 µM, time 3.0 day
[19] = biological target: T1, CDK8/Cyclin C (Homo sapiens); assay: Hydrophobic-tagging degradation activity at CDK8/Cyclin C in human MDA-MB-468 cells assessed as downregulation of C-terminal RNA polymerase II phosphorylation at serine 2 at 2 to 8 uM incubated for 24 hrs by Western blotting analysis; type: cell-based; settings: dose 2-8 µM
[20] = biological target: T1, CDK8/Cyclin C (Homo sapiens); assay: Hydrophobic-tagging degradation activity at CDK8/Cyclin C in human MDA-MB-468 cells assessed as downregulation of C-terminal RNA polymerase II phosphorylation at serine 5 at 2 to 8 uM incubated for 24 hrs by Western blotting analysis; type: cell-based; settings: dose 2-8 µM
[21] = biological target: T1, CDK8/Cyclin C (Homo sapiens); assay: Hydrophobic-tagging degradation activity at CDK8/Cyclin C in human MDA-MB-468 cells assessed as downregulation of […] phosphorylation at Tyr701 residue at 2 to 8 uM incubated for 24 hrs by Western blotting analysis; type: cell-based; settings: dose 2-8 µM
[22] = biological target: T1, CDK8/Cyclin C (Homo sapiens); assay: Hydrophobic-tagging degradation activity at CDK8/Cyclin C in human MDA-MB-468 cells assessed as downregulation of E2F gene expression level at 4 uM incubated for 24 hrs by qPT-PCR analysis; type: cell-based
[23] = biological target: T1, CDK8/Cyclin C (Homo sapiens); assay: Hydrophobic-tagging degradation activity at CDK8/Cyclin C in human MDA-MB-468 cells assessed as downregulation of d EAPP expression level at 4 uM incubated for 24 hrs by proteomic analysis; type: cell-based
[24] = biological target: T1, CDK8/Cyclin C (Homo sapiens); assay: Hydrophobic-tagging degradation activity at CDK8/Cyclin C in human MDA-MB-468 cells assessed as downregulation of TERT gene expression level at 4 uM incubated for 24 hrs by qPT-PCR analysis; type: cell-based
[25] = biological target: T2, Cyclin-dependent kinase 8; assay: Hydrophobic-tagging degradation activity at CDK8 in human MDA-MB-468 cells assessed as downregulation of RAP2C protein expression at 5 uM incubated for 12 hrs by DIA-based proteomic analysis; type: cell-based
[26] = biological target: T2, Cyclin-dependent kinase 8; assay: Hydrophobic-tagging degradation activity at CDK8 in human MDA-MB-468 cells assessed as downregulation of SMAD2 protein expression at 5 uM incubated for 12 hrs by DIA-based proteomic analysis; type: cell-based
[27] = test system: MDA-MB-468; assay: Antiproliferative activity against human MDA-MB-468 cells assessed as inhibition of cell proliferation incubated for 4 days by Celltiter glo luminescent assay; type: functional, cell-based; settings: MDA-MB-468, 96 h
[28] = test system: MDA-MB-231; assay: Antiproliferative activity against human MDA-MB-231 cells assessed as inhibition of cell proliferation incubated for 4 days by Celltiter glo luminescent assay; type: functional, cell-based; settings: MDA-MB-231, 96 h

- Activity [1]: Active
- Activity [2]: Dose-Dependent Effect
- DC50 [3]: 2.52 µM
- DC50 [4]: 2.64 µM
- Activity [5]: inactive
- Activity [6]: inactive
- Activity [7]: inactive
- Activity [8]: inactive
- Activity [9]: inactive
- Activity [10]: inactive
- Activity [11]: inactive
- Activity [12]: Active
- Activity [13]: Active
- Activity [14]: Tde
- Activity [15]: inactive
- Activity [19]: Dose-Dependent Effect
- Activity [20]: Dose-Dependent Effect
- Activity [21]: inactive
- Activity [22]: Active
- Activity [23]: Active
- Activity [24]: Active
- Activity [25]: Active
- Activity [26]: Active
- IC50 [27]: 5.73 µM
- IC50 [28]: 6.22 µM
SMILES: O=C(Cn1cc(-c2ccc(-c3cncc4ccccc34)cc2)cn1)N1CCN(CCCC23CC4CC(CC(C4)C2)C3)CC1
- Activity [16]: Active
- Activity [17]: Active
- inhibition [18]: Active
